Data set [1] in a line: Acceleration test (40° C., relative humidity 75%). The class given is physicochemical. Here is the method: Samples were sealed with polyethylene plastic bags, placed in the thermostatic drying chamber at 40±2° C. with relative humidity of 75±5% for 3 months. Then the samples were taken at the end of the first, second and third month respectively for determination, compared with the result of day 0, results were listed in the table below: […]

The nature of data set [2]: High temperature test (60° C.). The class given is physicochemical. Particulars: sealed ampoules. On the procedure: Samples were sealed in clean glass ampoules and put in 60° C. thermostatic drying chamber, then they were taken on the fifth and tenth day respectively for determination, compared with the result of day 0, results were listed in the table below:
Samples were sealed in clean glass ampoules and put in 60° C. thermostatic drying chamber, then they were taken on the fifth and tenth day respectively for determination, compared with the result of day 0, results were listed in the table below

Data set [3] can be described thus: Light exposure test (4500±500 Lx). The class given is physicochemical. Particulars: light 4500±500 Lx. The text has this: Samples were evenly spread out and placed in open culture dishes and the thickness thereof was less than 5 mm, then distances were adjusted until the illumination intensity was 4500±500 Lx, samples were taken on the fifth and tenth day respectively for determination, compared with the result of day 0, results were listed in the table below: […]

Data set [4] in a line: High humidity test (room temperature, relative humidity 75±5%). Particulars: 25° C. Format: physicochemical. Here is the method:
Samples were evenly spread out and placed in open culture dishes, wherein the thickness thereof was less than 5 mm, put in a thermostatic drying chamber at room temperature (25° C.) with relative humidity of 75±5%. Then the samples were taken on the fifth and tenth day respectively for determination, compared with the result of day 0, results were listed in the table below

Data set [5] is described as follows: Stability analysis, overall conclusion in words. Particulars: from light, high temperature, high humidity and acceleration tests. Format: physicochemical.
The format of data set [6] is physicochemical. Conditions: for amount of solvent (ml), 0.1N HCl / amount of solvent (ml), 0.1N NaOH / amount of solvent (ml), anhydrous ethanol / amount of solvent (ml), methanol / amount of solvent (ml), water: to dissolve 1 g of sample.
For data set [7], the system named is Duck Hepatitis B Virus. Put plainly: Anti-viral (anti-HBV) test in vivo, DHBV-DNA level by PCR. Further details: species or system GaoYou pockmark ducks. Conditions: ducks, once a day, day 0 level as base line of 100. On the procedure: Two-month old pockmark ducks vertically infected with Duck Hepatitis B Virus were selected as animal models to conduct anti-HBV test in vivo, the efficacy was investigated. 80 GaoYou pockmark ducks were divided randomly into. 8 groups, 10 ducks per groups, three groups were given TD fumarate at the dosage of 5, 15, 45 mg/kg once a day respectively, other three groups were given Tenofovir Disoproxil Fumarate at the dosage of 5, 15, 45 mg/kg once a day respectively, other one group was given Adefovir Dipivoxil at the dosage of 15 mg/kg once a day and the remaining group was blank control group. All the groups were administered for 28 days, and blood samples were taken every 7 days to determine the inhibitory effect to the DHBV-DNA level by PCR, inhibition rate was listed in the following table.

SMILES strings stand for the structures. Structures can show the parent of a compound that is named as a salt.

The results in this text go back to patent US8507463B2, “Nucleotide analogue prodrug and the preparation thereof” (Jiangsu Chia Tai Tianqing Pharmaceutical Co., Ltd., priority 2005, dated 2013).

Turning to `C[C@H](Cn1cnc2c(N)ncnc21)OCP(=O)(OCOC(=O)C(C)(C)C)OCOC(=O)C(C)(C)C` [TD crystalline form B, 9-[2-(R)-[bis[pivaloyloxymethoxy]-phosphinylmethoxy]propyl]adenine], the “content (%)” value in data set [1] (end of month 1) worked out at 95.8%; in data set [1] (end of month 2) it was 92.7%; in data set [1] (end of month 3) it was 88.7%; in data set [2] (day 0), 98.8%; in data set [2] (day 5), 97.7%; in data set [2] (day 10), 97.0%. Also, the “content (%)” value in data set [3] (day 0) stood at 99.2%; in data set [3] (day 5), 98.8%; in data set [3] (day 10) it was 98.7%; in data set [4] (day 0), 99.6%; in data set [4] (day 5) it was 98.2%; in data set [4] (day 10), 96.9%. The “Weight gain after moisture absorption (%)” value (from here on “Weight gain … (%)”) in data set [4] (day 5) was 0%; in data set [4] (day 10) it was 0.2%. In data set [5], the “stability, overall conclusion in words” value is “good stabilities”. Besides, the “solubility conclusion, 0.1N HCl” value in data set [6] is on record as “soluble”. For the same molecule, the “solubility conclusion, 0.1N NaOH” value in data set [6] is recorded as “slightly”. Also, the “solubility conclusion, anhydrous ethanol” value in data set [6] is on record as “freely soluble”. The “solubility conclusion, methanol” value in data set [6] is “freely soluble”. Besides, the “amount of solvent (ml), 0.1N HCl” value in data set [6] worked out at 27.3 mL. Further, the “amount of solvent (ml), 0.1N NaOH” value in data set [6] was determined as 790 mL. Moreover, in data set [6], the “amount of solvent (ml), anhydrous ethanol” value (from here on “amount … anhydrous ethanol”) is 6.0 mL. Also, in data set [6], the “amount of solvent (ml), methanol” value stood at 1.5 mL. Besides, in data set [6] (water), the “amount of solvent (ml), water” value worked out at 840 mL. Also, the “solubility conclusion, water” value in data set [6] (water) is “slightly”.
With `C[C@H](Cn1cnc2c(N)ncnc21)OCP(=O)(OCOC(=O)C(C)(C)C)OCOC(=O)C(C)(C)C` [amorphous TD, 9-[2-(R)-[bis[pivaloyloxymethoxy]-phosphinylmethoxy]propyl]adenine], the “content (%)” value in data set [1] (end of month 1) turned out to be 92.3%; in data set [1] (end of month 2), 88.9%; in data set [1] (end of month 3), 82.8%; in data set [1] (month 0), 99.0%; in data set [2] (day 0), 98.5%; in data set [2] (day 5), 97.5%. The “content (%)” value in data set [2] (day 10) is given as 97.1%; in data set [3] (day 0), 98.5%; in data set [3] (day 5), 98.3%; in data set [3] (day 10), 98.1%; in data set [4] (day 0), 99.0%; in data set [4] (day 5) it was 97.9%. The “content (%)” value in data set [4] (day 10) was 95.8%. The entries for the “Weight gain … (%)” value in data set [4] (day 5) and in data set [4] (day 10) were 1.0% and 2.3%, respectively. The “solubility conclusion, 0.1N HCl” value in data set [6] is recorded as “soluble”. The “solubility conclusion, 0.1N NaOH” value in data set [6] was “slightly”. Further, the “solubility conclusion, anhydrous ethanol” value in data set [6] is “freely soluble”. The “solubility conclusion, methanol” value in data set [6] is “freely soluble”. Moreover, the “amount of solvent (ml), 0.1N HCl” value in data set [6] was 25.2 mL. The “amount of solvent (ml), 0.1N NaOH” value in data set [6] stood at 613 mL. For the same molecule, in data set [6], the “amount … anhydrous ethanol” value worked out at 5.6 mL. The “amount of solvent (ml), methanol” value in data set [6] was 2.0 mL. The “amount of solvent (ml), water” value in data set [6] (water) was determined as 380 mL. In addition, the “solubility conclusion, water” value in data set [6] (water) is listed as “soluble”. Moreover, the “water solubility compared with other solid TD forms, in words” value in data set [6] (water) is “better solubility than crystalline TD in water”.
For `CC(C)OC(=O)OCOP(=O)(CO[C@H](C)Cn1cnc2c(N)ncnc21)OCOC(=O)OC(C)C` [Tenofovir Disoproxil Fumarate], in data set [7] (5 mg/ml group), the “DHBV-DNA level, First week” value was 90 ± 9; the “DHBV-DNA level, Fourth week” value was found to be 50 ± 7; the “DHBV-DNA level, Second week” value is 79 ± 5; the “DHBV-DNA level, Third week” value was determined as 65 ± 6. In addition, in data set [7] (15 mg/ml group), the “DHBV-DNA level, First week” value was 83 ± 6; the “DHBV-DNA level, Fourth week” value is listed as 37 ± 8; the “DHBV-DNA level, Second week” value worked out at 66 ± 7; the “DHBV-DNA level, Third week” value was 53 ± 5. In data set [7] (45 mg/ml group), the “DHBV-DNA level, First week” value stood at 75 ± 9; the “DHBV-DNA level, Fourth week” value is 25 ± 7; the “DHBV-DNA level, Second week” value was found to be 43 ± 8; the “DHBV-DNA level, Third week” value is on record as 35 ± 6.
As to `CC(Cn1cnc2c(N)ncnc21)OCP(=O)(OCOC(=O)C(C)(C)C)OCOC(=O)C(C)(C)C.CC1(C)CCC2(C(=O)O)CCC3(C)C(=CCC4C5(C)CCC(O)C(C)(C)C5CCC43C)C2C1` (stereo not shown) [TD oleanolate], the “content (%)” value in data set [1] (end of month 1) is 98.7%; in data set [1] (end of month 2) it was 98.5%; in data set [1] (end of month 3), 98.4%; in data set [1] (month 0), 99.2%; in data set [2] (day 0), 99.0%; in data set [2] (day 5), 98.9%. The “content (%)” value in data set [2] (day 10) is reported as 98.6%; in data set [3] (day 0), 99.2%; in data set [3] (day 5), 99.0%; in data set [3] (day 10), 99.3%; in data set [4] (day 0) it was 99.2%; in data set [4] (day 5), 99.1%. Further, the “content (%)” value in data set [4] (day 10) is on record as 99.1%. The “Weight gain … (%)” value in data set [4] (day 5) and in data set [4] (day 10) was 0% each time. Further, in data set [6], the “solubility conclusion, 0.1N HCl” value is on record as “not”. Moreover, in data set [6], the “solubility conclusion, 0.1N NaOH” value is “not soluble”. In addition, the “solubility conclusion, anhydrous ethanol” value in data set [6] is “slightly”. Besides, in data set [6], the “solubility conclusion, methanol” value is given as “slightly”. In addition, the “amount of solvent (ml), 0.1N HCl” value in data set [6] is over 1000 mL. Also, in data set [6], the “amount of solvent (ml), 0.1N NaOH” value was over 1000 mL. The “amount … anhydrous ethanol” value in data set [6] is 650 mL. In addition, the “amount of solvent (ml), methanol” value in data set [6] was determined as 760 mL. Further, the “amount of solvent (ml), water” value in data set [6] (water) was over 1000 mL. Moreover, the “solubility conclusion, water” value in data set [6] (water) is “not soluble”.
